This experiment has as its target T1, cytosolic phospholipase A2 (cPLA2) (Homo sapiens, UniProt P47712).
T1 construct: gene PLA2G4A
T1 sequence (P47712 1-749): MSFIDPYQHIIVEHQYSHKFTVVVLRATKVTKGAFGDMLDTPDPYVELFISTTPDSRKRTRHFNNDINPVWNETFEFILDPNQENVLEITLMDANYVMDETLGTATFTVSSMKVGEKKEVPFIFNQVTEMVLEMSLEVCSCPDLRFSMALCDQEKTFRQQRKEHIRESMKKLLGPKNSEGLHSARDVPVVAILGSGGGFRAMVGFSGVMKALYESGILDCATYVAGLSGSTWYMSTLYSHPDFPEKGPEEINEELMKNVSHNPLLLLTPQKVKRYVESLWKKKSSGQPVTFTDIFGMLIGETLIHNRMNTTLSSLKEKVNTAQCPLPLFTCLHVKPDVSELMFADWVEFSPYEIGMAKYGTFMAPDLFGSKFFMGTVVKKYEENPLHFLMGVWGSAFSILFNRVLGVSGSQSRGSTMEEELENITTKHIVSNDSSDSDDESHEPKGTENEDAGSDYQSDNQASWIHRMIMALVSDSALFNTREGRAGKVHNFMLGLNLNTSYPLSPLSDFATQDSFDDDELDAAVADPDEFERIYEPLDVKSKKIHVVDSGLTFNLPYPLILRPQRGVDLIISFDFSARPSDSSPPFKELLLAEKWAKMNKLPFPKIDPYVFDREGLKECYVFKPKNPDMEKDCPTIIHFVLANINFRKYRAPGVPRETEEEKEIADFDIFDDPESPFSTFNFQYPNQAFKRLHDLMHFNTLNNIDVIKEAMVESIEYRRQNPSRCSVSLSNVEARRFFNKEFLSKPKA
As to the kind of experiment: recombinant cPLA2 enzymatic assay (Cayman cPLA2 assay kit). It counts as biochemical.

Each structure is given as a SMILES string.

Consider `C[C@@H]1OC(c2c(O)cc(O)c3c(=O)cc(-c4ccc(O)cc4)oc23)[C@H](O)[C@H](O)[C@H]1O` (stereo partly shown) [8CR, 8-C-rhamnosyl apigenin], for which the IC50 amounted to 134 µM.

For the origin of these results see PMC5618621, “Non-Clinical Studies for Evaluation of 8-C-Rhamnosyl Apigenin Purified from Peperomia obtusifolia against Acute Edema” (International Journal of Molecular Sciences, 2017).
